In paper PMC7754465, “Multiparameter Kinetic Analysis for Covalent Fragment Optimization by Using Quantitative Irreversible Tethering (qIT)” (Chembiochem, 2020):

Biological target: His-Cdk2(F80C,C177A,D145N) (Homo sapiens, UniProt P24941, C177A/D145N/F80C)
Assay: qIT assay with His-Cdk2(F80C,C177A,D145N)
Assay type: binding
Settings: acrylamide 69 0.5 mM, thiol 5 µM
Method: site that is normally occupied by the adenosine core of ATP. Indeed, the methyl ester engages in a hydrogen-bonding interaction with the backbone amide of Leu83, mimicking the pyrimidine pharmacophore of ATP, while the acrylamide carbonyl itself is hydrogen bonded to the ε-amine of Lys32.
Next the 57-Cdk2(F80C,C177A) conjugate was prepared and crystallised by heterogeneous microseeding in an analogous manner. This complex diffracted to 2.0 GS H Å […]
Although acrylamide Cdk2(F80C,C177A,D145N) 57 could be O […]
modelled into the electron density map with a cov1.25 alent bond to Cys80, the ligand-binding mode was less clearly defined (Figure 72b). It is postulated that either the ligand binds in N […]
multiple unresolved modes or that the protein was not fully modified such that the ligand 69 […]
clin A2 to form active holoenzymes. The holoenzymes were incubated with peptide substrate, ATP, NADH, PEP, LD and PK Tim e ( h) ! at 37 °C and the absorbance measured over time in clear 384-well plates. Kinase activity is determined from the gradient of Figure the absorbance over time (between 100084. Fluorescence data (normalised against DMSO –3000 s) and normalised relative to pCdk2(WT) = 100% and cyclin A2 only = 0% (n = control) from qIT assay for acrylamide […]
glutathione (5 µM). Vertical error bars represent the standard deviation of fluorogenic thiol quantifications, performed in duplicate. […]

C=CC(=O)N1CCN(CC)c2ccccc21 [compound 6]
k, thiol Cdk2(F80C,C177A,D145N): 0.23 h–1
